Test results reported in ChEMBL document CHEMBL6120969, “Distinctive Immune Signatures Driven by Structural Alterations in Desmuramylpeptide NOD2 Agonists” (J Med Chem, 2024).
Activity calls are given as the source filed them. The calls are words filed in the database; no cut-off is given here.

Tests used:
[1] = Cytotoxicity against human HEK-Blue hNOD2 cells assessed as metabolic activity at 10 uM incubated for 18 hes by MTT assay; type: toxicity, cell-based; conditions: hek-blue hnod2, 10 µM
[2] = system: PBMC; test: Immunomodulatory activity in human PBMC cells assessed as increase in IL-4 level at 2 uM incubated for 18 hrs y flow cytometry analysis; type: functional, cell-based
Procedure, shortened: (§1)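 Cytokine levels in cell-free supernatants were measured by flow cytometry using the LEGENDplex Human Essential Immune Response Panel and the kit's recombinant standard curves. The supernatants came from human donor PBMCs (1 × 10^6 cells/mL) kept for 18 h at 37 °C, 5% CO2 with 2 μM compound or 0.1% DMSO vehicle, with no LPS added. Four independent replicates were compared by two-way ANOVA followed by Tukey's test.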

[3] = system: PBMC; test: Immunomodulatory activity in human PBMC cells assessed as increase in IL-2 level at 2 uM incubated for 18 hrs y flow cytometry analysis; type: functional, cell-based; procedure, shortened: as §1
[4] = system: PBMC; test: Immunomodulatory activity in human PBMC cells assessed as increase in IP-10 level at 2 uM incubated for 18 hrs y flow cytometry analysis; type: functional, cell-based; procedure, shortened: as §1
[5] = system: PBMC; test: Immunomodulatory activity in human PBMC cells assessed as increase in IL-1beta level at 2 uM incubated for 18 hrs y flow cytometry analysis; type: functional, cell-based; procedure, shortened: as §1
[6] = system: PBMC; test: Immunomodulatory activity in human PBMC cells assessed as increase in TNF-alpha level at 2 uM incubated for 18 hrs y flow cytometry analysis; type: functional, cell-based; procedure, shortened: as §1
[7] = system: PBMC; test: Immunomodulatory activity in human PBMC cells assessed as increase in MCP-1 level at 2 uM incubated for 18 hrs y flow cytometry analysis; type: functional, cell-based; procedure, shortened: as §1
[8] = system: PBMC; test: Immunomodulatory activity in human PBMC cells assessed as increase in IL-17A level at 2 uM incubated for 18 hrs y flow cytometry analysis; type: functional, cell-based; procedure, shortened: as §1
[9] = system: PBMC; test: Immunomodulatory activity in human PBMC cells assessed as increase in IL-6 level at 2 uM incubated for 18 hrs y flow cytometry analysis; type: functional, cell-based; procedure, shortened: as §1
[10] = system: PBMC; test: Immunomodulatory activity in human PBMC cells assessed as increase in IL-10 level at 2 uM incubated for 18 hrs y flow cytometry analysis; type: functional, cell-based; procedure, shortened: as §1
[11] = system: PBMC; test: Immunomodulatory activity in human PBMC cells assessed as increase in IFN-gamma level at 2 uM incubated for 18 hrs y flow cytometry analysis; type: functional, cell-based; procedure, shortened: as §1
[12] = system: PBMC; test: Immunomodulatory activity in human PBMC cells assessed as increase in IL-12p70 level at 2 uM incubated for 18 hrs y flow cytometry analysis; type: functional, cell-based; procedure, shortened: as §1
[13] = system: PBMC; test: Immunomodulatory activity in human PBMC cells assessed as increase in IL-8 level at 2 uM incubated for 18 hrs y flow cytometry analysis; type: functional, cell-based; procedure, shortened: as §1
[14] = system: PBMC; test: Immunomodulatory activity in human PBMC cells assessed as increase in TGF-beta1 level at 2 uM incubated for 18 hrs y flow cytometry analysis; type: functional, cell-based; procedure, shortened: as §1
[15] = system: PBMC; test: Immunomodulatory activity in human PBMC cells assessed as increase in LPS-induced IL-1beta level at 2 uM incubated for 18 hrs y flow cytometry analysis; type: functional, cell-based
[16] = system: PBMC; test: Immunomodulatory activity in human PBMC cells assessed as increase in LPS-induced IL-6 level at 2 uM incubated for 18 hrs y flow cytometry analysis; type: functional, cell-based
Procedure, shortened: (§2)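 For the cytokine readout, cell-free supernatants were assayed by flow cytometry with the LEGENDplex Human Essential Immune Response Panel and quantified against the kit's recombinant standard curves. These supernatants were collected from Ficoll-Paque-isolated human donor PBMCs that had been stimulated with LPS (10 ng/mL) in the presence of compounds at 2 μM or 0.1% DMSO for 18 h at 37 °C, 5% CO2. Statistics used two-way ANOVA with Tukey's test across four independent replicates.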

[17] = system: PBMC; test: Immunomodulatory activity in human PBMC cells assessed as increase in LPS-induced IL-10 level at 2 uM incubated for 18 hrs y flow cytometry analysis; type: functional, cell-based; procedure, shortened: as §2
[18] = system: PBMC; test: Immunomodulatory activity in human PBMC cells assessed as increase in LPS-induced TNF-alpha level at 2 uM incubated for 18 hrs y flow cytometry analysis; type: functional, cell-based
[19] = system: PBMC; test: Immunomodulatory activity in human PBMC cells assessed as increase in LPS-induced IL-12p70 level at 2 uM incubated for 18 hrs y flow cytometry analysis; type: functional, cell-based
[20] = system: PBMC; test: Immunomodulatory activity in human PBMC cells assessed as increase in LPS-induced IFN-gamma level at 2 uM incubated for 18 hrs y flow cytometry analysis; type: functional, cell-based
[21] = system: PBMC; test: Immunomodulatory activity in human PBMC cells assessed as increase in LPS-induced MCP-1 level at 2 uM incubated for 18 hrs y flow cytometry analysis; type: functional, cell-based; procedure, shortened: as §2
[22] = system: PBMC; test: Immunomodulatory activity in human PBMC cells assessed as increase in LPS-induced IP-10 level at 2 uM incubated for 18 hrs y flow cytometry analysis; type: functional, cell-based; procedure, shortened: as §2
[23] = system: PBMC; test: Cytotoxicity against human PBMC cells co-cultured with human K562 cells at 10 uM incubated for 4 hrs; type: functional, cell-based
Procedure, shortened: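 After 18 h pretreatment with compounds at 10 μM (vehicle 0.1% DMSO), human PBMCs (4 × 10^5/well, 96-well) were cocultured for 4 h at 37 °C, 5% CO2 with CFSE-stained K562 cells at an effector:target ratio of 40:1 (1 × 10^4/well). Target cell killing was measured by flow cytometry on an Attune NxT as CFSE+ Sytox blue+ K562 cells.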

[24] = Cytotoxicity against human PBMC cells at 10 uM incubated for 4 hrs; type: toxicity, cell-based
Procedure, shortened: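 Alongside a K562 killing assay, human PBMCs on their own received compounds at 10 μM in 0.1% DMSO vehicle. After Sytox blue dead cell staining, the cells were acquired on an Attune NxT flow cytometer and analysed with FlowJo. Sytox blue-positive cells served as the readout of direct cytotoxicity. Duplicates were run in three independent biological replicates, and statistics used one-way ANOVA followed by Dunnett's test.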

[25] = Cytotoxicity against human PBMC cells at 10 uM incubated for 4 hrs in presence of MDP; type: toxicity, cell-based
[26] = system: BMDC; test: Adjuvant activity in OVA-immunized C57BL/6J mouse BMDC cells assessed as increase in CD4+ T cell activation incubated for 18 hrs; type: functional, cell-based
Procedure, shortened: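 Dendritic cells were derived from C57BL/6 mouse bone marrow by 7 days of culture with GM-CSF, then pretreated for 18 h with compounds at 10 μM together with 50 μg/mL ovalbumin and washed. These cells (1 × 10^4/well) were co-cultured with 5 × 10^4 CFSE-labelled OT II CD4+ T cells for 72 h at 37 °C in 5% CO2. T-cell activation was assessed by flow cytometry on live Thy1.2+/CD4+ cells, using CFSE dilution and CD25 expression as readouts. Assays were run in duplicate across two independent biological replicates and analysed with paired t tests.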

[27] = system: BMDC; test: Adjuvant activity in OVA-immunized C57BL/6J mouse BMDC cells co-cultured with mouse CD4+ T cells assessed as increase in IL-2 level at 10 uM incubated for 18 hrs; type: functional, cell-based
[28] = system: BMDC; test: Adjuvant activity in OVA-immunized C57BL/6J mouse BMDC cells co-cultured with mouse CD4+ T cells assessed as increase in IL-9 level at 10 uM incubated for 18 hrs; type: functional, cell-based
[29] = system: BMDC; test: Adjuvant activity in OVA-immunized C57BL/6J mouse BMDC cells co-cultured with mouse CD8+ T cells assessed as increase in IL-6 production at 10 uM incubated for 18 hrs by flow cytometry analysis; type: functional, cell-based
[30] = system: BMDC; test: Adjuvant activity in OVA-immunized C57BL/6J mouse BMDC cells co-cultured with mouse CD8+ T cells assessed as reduction in IFN-gamma production at 10 uM incubated for 18 hrs by flow cytometry analysis; type: functional, cell-based
[31] = system: BMDC; test: Adjuvant activity in OVA-immunized C57BL/6J mouse BMDC cells co-cultured with mouse CD4+ T cells assessed as reduction in IFN-gamma production at 10 uM incubated for 18 hrs by flow cytometry analysis; type: functional, cell-based
[32] = system: BMDC; test: Adjuvant activity in OVA-immunized C57BL/6J mouse BMDC cells co-cultured with mouse CD4+ T cells assessed as increase in IL-4 production at 10 uM incubated for 18 hrs by flow cytometry analysis; type: functional, cell-based
[33] = Anti-inflammatory activity in human PBMC cells assessed as increase in percentage of non classical monocytes at 10 uM incubated for 18 hrs by flow cytometry analysis; type: functional
[34] = Anti-inflammatory activity in human PBMC cells assessed as increase in percentage of intermediate monocytes at 10 uM incubated for 18 hrs by flow cytometry analysis; type: functional
[35] = Anti-inflammatory activity in human PBMC cells assessed as increase in percentage of classical monocytes at 10 uM incubated for 18 hrs by flow cytometry analysis; type: functional
[36] = system: BMDC; test: Adjuvant activity in OVA-immunized C57BL/6J mouse BMDC cells co-cultured with mouse CD4+ T cells assessed as increase in IL-6 production at 10 uM incubated for 18 hrs by flow cytometry analysis; type: functional, cell-based
[37] = system: BMDC; test: Adjuvant activity in OVA-immunized C57BL/6J mouse BMDC cells co-cultured with mouse CD8+ T cells assessed as increase in IL-9 production at 10 uM incubated for 18 hrs by flow cytometry analysis; type: functional, cell-based

SMILES	Activity [1]	Activity [2]	Activity [3]	Activity [4]	Activity [5]	Activity [6]	Activity [7]	Activity [8]	Activity [9]	Activity [10]	Activity [11]	Activity [12]	Activity [13]	Activity [14]	Activity [15]	Activity [16]	Activity [17]	Activity [18]	Activity [19]	Activity [20]	other results
CC/C=C\C/C=C\C/C=C\C/C=C\C/C=C\CCCC(=O)Oc1ccc(/C=C/C(=O)NCC(=O)N[C@H](C(=O)N[C@H](CCC(=O)OCC)C(=O)OCC)C(C)C)cc1OC	Non-toxic	Active	Active	Active	Active	Active	Active	Active	Active	Active	Active	Active	Active	Active	Active	Active	Active	Active	Active	Active	Activity [21]: Active; Activity [22]: Active; Activity [23]: inactive; Activity [24]: Non-toxic; Activity [25]: Non-toxic; Activity [26]: Active; Activity [27]: Active; Activity [28]: Active; Activity [29]: Active; Activity [30]: Active; Activity [31]: Active; Activity [32]: Active
CCOC(=O)CC[C@@H](NC(=O)[C@@H](NC(=O)CNC(=O)/C=C/c1ccc(OC(=O)CO[C@H]2CC[C@@]3(C)C(=CC[C@H]4[C@@H]5CC[C@H]([C@H](C)CCCC(C)C)[C@@]5(C)CC[C@@H]43)C2)c(OC)c1)C(C)C)C(=O)OCC	Non-toxic	Active	Active	Active	Active	Active	Active	Active	Active	Active	Active	Active	Active	Active	Active	Active	Active	Active	Active	Active	Activity [21]: Active; Activity [22]: Active; Activity [23]: Active; Activity [24]: Moderate_effect; Activity [33]: 76.6%; Activity [34]: 4.53%; Activity [35]: 0.35%; Activity [26]: Active; Activity [27]: Active; Activity [28]: Active; Activity [36]: Active; Activity [37]: Active
CCCC(=O)Oc1ccc(/C=C/C(=O)NCC(=O)N[C@H](C(=O)N[C@H](CCC(=O)OCC)C(=O)OCC)C(C)C)cc1OC	Non-toxic	Active	Active	Active	Active	Active	Active	Active	Active	Active	Active	Active	Active	Active	Active	Active	Active	Active	Active	Active	Activity [21]: Active; Activity [22]: Active; Activity [23]: inactive; Activity [24]: Non-toxic; Activity [25]: Non-toxic; Activity [26]: Active; Activity [27]: Active; Activity [28]: Active; Activity [29]: Active; Activity [30]: Active; Activity [31]: Active; Activity [32]: Active
CCOC(=O)[C@@H](CCC(=O)NC12C[C@H]3C[C@@H](C1)C[C@@H](C2)C3)NC(=O)[C@@H](NC(=O)CNC(=O)/C=C/c1ccc(O)c(OC)c1)C(C)C	Non-toxic	Active	Active	Active	Active	Active	Active	Active	Active	Active	Active	Active	Active	Active	Active	Active	Active	Active	Active	Active	Activity [21]: Active; Activity [22]: Active; Activity [23]: inactive; Activity [24]: Non-toxic; Activity [25]: Non-toxic; Activity [26]: Active; Activity [27]: Active; Activity [28]: Active; Activity [36]: Active; Activity [29]: Active; Activity [37]: Active; Activity [30]: Active; Activity [31]: Active; Activity [32]: Active
